“Also recorded” adds a separate entry of the source.
What was measured:
[1] = tested on: BV2 microglial cells stimulated with LPS; assay: IL-6 level by ELISA in BV2 microglial cells stimulated with LPS; type: cell-based; conditions: for effect on IL-6 level (pro-inflammatory activity): 0–5 μM, LPS-stimulated BV2, in words; for IL-6 expression (ELISA): 5 μM, LPS-stimulated BV2
[2] = tested on: BV2 microglial cells stimulated with LPS; assay: IL-10 level by ELISA in BV2 microglial cells stimulated with LPS; type: cell-based; conditions: for expression of the anti-inflammatory cytokines: 5 μM, in words; for effect on IL-10 levels: 0–5 μM, LPS-stimulated BV2, in words; for levels of IL-10 (ELISA): LPS-stimulated BV2, 5 μM implied
[3] = after 0.5 h; cited from earlier work
[4] = type: in vivo, mouse; conditions: for concentration of metabolite formed, detected in plasma: mice given CBG 20 mg/kg, after 0.5 h
CYP3A4 = CYP3A4 (Homo sapiens, UniProt P08684); assay: Spectral
Sequence of CYP3A4 (P08684 whole entry): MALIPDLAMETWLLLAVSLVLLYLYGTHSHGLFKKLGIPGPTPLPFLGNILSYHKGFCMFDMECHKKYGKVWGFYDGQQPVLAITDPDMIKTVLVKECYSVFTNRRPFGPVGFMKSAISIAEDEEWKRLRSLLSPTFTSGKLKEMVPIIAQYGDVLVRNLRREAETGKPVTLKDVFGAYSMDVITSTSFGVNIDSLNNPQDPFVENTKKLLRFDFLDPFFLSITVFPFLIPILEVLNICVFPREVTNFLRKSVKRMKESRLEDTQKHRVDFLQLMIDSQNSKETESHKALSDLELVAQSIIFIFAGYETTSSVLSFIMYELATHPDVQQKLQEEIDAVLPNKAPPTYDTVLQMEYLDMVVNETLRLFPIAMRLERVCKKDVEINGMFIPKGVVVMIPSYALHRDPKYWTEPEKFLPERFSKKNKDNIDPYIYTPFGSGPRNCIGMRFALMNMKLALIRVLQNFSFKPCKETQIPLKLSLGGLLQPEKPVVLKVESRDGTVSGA

[5] = tested on: BV2 microglial cells stimulated with LPS; assay: Nitric oxide level in BV2 microglial cells stimulated with LPS; type: cell-based; conditions: highest reduction among analogs (Figure S8)
[6] = tested on: CYP2J2, 3A4, 2D6, 2C9 and 2C8; type: in vitro ADME; conditions: human
CYP2C8 [7] = conditions: human
CYP2D6 [8] = molecular target: T1, CYP2D6 (Homo sapiens, UniProt P10635)
T1 sequence (P10635 whole entry): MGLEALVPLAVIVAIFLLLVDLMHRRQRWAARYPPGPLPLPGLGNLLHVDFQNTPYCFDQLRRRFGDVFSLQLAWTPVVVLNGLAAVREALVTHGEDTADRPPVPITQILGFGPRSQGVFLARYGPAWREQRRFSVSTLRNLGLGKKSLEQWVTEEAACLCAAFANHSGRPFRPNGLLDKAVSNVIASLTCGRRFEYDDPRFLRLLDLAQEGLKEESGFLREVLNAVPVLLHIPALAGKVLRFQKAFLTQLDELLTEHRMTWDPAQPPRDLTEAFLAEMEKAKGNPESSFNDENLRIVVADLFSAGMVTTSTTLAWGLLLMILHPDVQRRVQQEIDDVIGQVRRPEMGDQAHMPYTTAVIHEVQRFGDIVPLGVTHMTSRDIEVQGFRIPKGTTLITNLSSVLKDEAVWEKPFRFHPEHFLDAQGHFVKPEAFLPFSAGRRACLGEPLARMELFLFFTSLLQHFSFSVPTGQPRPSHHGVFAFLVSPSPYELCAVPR

CYP2D6 [9] = molecular target: T1, CYP2D6; assay: biochemical
CYP2C8 [10] = assay: Spectral; conditions: presence versus absence of CBG
[11] = tested on: human liver microsomes (HLM); assay: CBG metabolism by human liver microsomes, targeted mass spectrometry; type: in vitro ADME

In the case of `CCCCCc1cc(O)c(CC(O)C(C)(O)CCC=C(C)C)c(O)c1` (stereo not shown) [2′,3′-dihydroxy-CBG, 2′,3′-dihydroxy CBG], the “effect on IL-6 level (pro-inflammatory activity)” value (“effect on IL-6 level” for short) [1] is reported as “concentration dependent reduction in IL-6 level” and the “expression of the anti-inflammatory cytokines” value [2] is reported as “maximum expression of the anti-inflammatory cytokines”.
In the case of `CCCCCc1cc(O)c2c(c1)OC(C)(C)[C@@H]1CCC(C)=C[C@@H]21` [THC, Δ^9-tetrahydrocannabinol], the “level in human blood plasma” value [3] is given as ~ 0.06 μM.
In the case of `CCCCCc1cc(O)c(C/C=C(\C)CC/C=C(\C)CCC=C(C)C)c(O)c1` [sCBG, sesqicannabigerol], the “effect on IL-6 level” value [1] is reported as “concentration dependent reduction in IL-6 level” and the “bioactivity compared to CBG metabolites having polar functional groups” value ([1]; inflammatory cytokines in BV2 model, in words) is reported as “does not significant bioactivity”.
With `CCCCCc1cc(O)c(C/C=C(\C)CCC2OC2(C)C)c(O)c1` (stereo not shown) [6′,7′-epoxy-CBG] the “concentration of metabolite formed, detected in plasma” value [4] was 7.5 nM, the “effect on IL-6 level” value [1] was “lowering in IL-6 expression” and the “effect on IL-10 levels” value [2] was “concentration dependent increase in IL-10 levels”.
With `C[C@]12CC[C@H]3[C@@H](CCC4=CC(=O)CC[C@@]43C)[C@@H]1CC[C@@H]2O` [TST, testosterone, reference compound] the “TST binds more strongly as compared to CBG” value (CYP3A4; direct binding, TST versus CBG) was about 5 times.
In the case of `CCCCCc1cc(O)c(C/C=C(\C)CCC(O)C(C)(C)O)c(O)c1` (stereo not shown) [carmagerol, 6′,7′-dihydroxy CBG], the “% NO level” value [5] is reported as 60.0±6.03%, the “effect on IL-6 level” value [1] is reported as “lowering in IL-6 expression; also recorded: highest reduction in the pro-inflammatory activity” and the “IL-6 expression (ELISA)” value [1] is reported as 307.8±159.1. For the same molecule, the “effect on IL-10 levels” value [2] was “concentration dependent increase in IL-10 levels” and the “levels of IL-10 (ELISA)” value [2] was 159.5±16.7.
In the case of `CCCCCc1cc(O)c(C/C=C(\C)CCC=C(C)C)c(O)c1` [CBG, Cannabigerol], the concentration at 0.5 h ([4]; female, mouse, in vivo) is reported as 500 to 700 nM, the concentration at 2 h ([4]; female, mouse, in vivo) is reported as about 50 nM and the “% NO level” value [5] is reported as 64.1±5.9%. For the same molecule, the “effect on IL-6 level” value [1] was “concentration dependent reduction in IL-6 level”, the “IL-6 expression (ELISA)” value [1] was 414.2±75.2 and the “effect on IL-10 levels” value [2] was “concentration dependent increase in IL-10 levels”. For the same molecule, the “expression of the anti-inflammatory cytokines” value [2] was “maximum expression of the anti-inflammatory cytokines”, the “levels of IL-10 (ELISA)” value [2] was 236.03±12.35 and the “Km for formation of cyclo-CBG, CYP2J2 relative to 2D6 and 2C8” value [6] was 1.5–2 times. The “Ks of CBG higher than for CYP2J2” value (CYP2C8 [7]) was about 3 times, the “Ks for CBG binding lower than for TDZ binding” value (CYP2D6 [8]) was about 3.5 times and the “Ks of CBG higher than for CYP2J2” value (CYP2D6 [8]) was about 3 times. For the same molecule, the Ki (CYP2D6 [9]) was 10 to 20 µM and the Ki (CYP3A4) was 10 to 20 µM.
In the case of `CC1=C(/C=C/C(C)=C/C=C/C(C)=C/C(=O)O)C(C)(C)CCC1` [RTA, all trans-retinoic acid], the “increase of Ks on addition of RTA to CBG-bound CYP” value (CYP2C8 [10]) is reported as ~ 1.3 times and the “increase of ΔAmax on addition of RTA to CBG-bound CYP” value (CYP2C8 [10]) is reported as ~ 1.2 times.
In the case of `CCCCCc1cc(O)c2c(c1)OC(C)(CCC=C(C)C)C(O)C2` (stereo not shown) [cyclo-CBG], the “concentration of metabolite formed, detected in plasma” value [4] is reported as 1500 nM, the “amount of cyclo-CBG relative to 6′,7′-epoxy-CBG in plasma” value ([4]; plasma of CBG treated mice) is reported as ~ 100 times and the “amount of cyclo-CBG produced relative to 6′,7′-epoxy-CBG” value [11] is reported as ~ 100 fold.
In the case of `C=C(C)[C@@H]1CCC(C)=C[C@H]1c1c(O)cc(CCCCC)cc1O` [CBD, cannabidiol], the “level in human blood plasma” value [3] is given as ~ 0.14 μM.
